Like-named read-outs stand apart in the source and are kept apart here.
Assays:
[1] = for Degradation at 2 y: 3.4 mg/mL in succinate-buffered saline
Procedure: In this study, the long term stability of a liquid formulation of AMG 416, at a concentration of 3.4 mg/mL, was determined over a range of pH in succinate-buffered saline. USP purified water (1200 mL) was dispensed into a glass beaker. Sodium succinate (4.05 g) and sodium chloride (13.5 g) were added and stirred to dissolve. The pH was adjusted to 2.5 with 1N NaOH and/or 1N HCl as required. […] The solution was divided into three portions and the pH for each portion was adjusted to 2.5, 3.0 and 3.5, respectively. Each solution was filtered separately through 0.22 micron PVDF filter and dispense 2 mL to 5-cc vials. After being stoppered, sealed, and labeled, the vials were place in designated stability chambers at 5° C.±3, 25° C.±2, and 40° C.±2. Samples were retrieved according to schedule and diluted with deionized water to 1.0 mg/mL for HPLC analysis.

[2] = physchem; conditions: succinate buffered saline, pH 4.5
Procedure: In this study, the solubility of AMG 416 in succinate buffered-saline was investigated. […] After briefly vortexing, a clear solution was obtained with a nominal concentration of 400 mg/mL. Because expansion of the solution volume was not determined, the solubility of AMG 416 can be conservatively stated as at least 200 mg/mL. Although the maximal solubility was not determined in this experiment, AMG 416 is soluble in pH 4.5 succinate buffered saline to concentrations of at least 200 mg/mL.

[3] = Concentration dependent stability in 25 mM succinate-buffered saline pH 4.5, HPLC purity, with Arrhenius extrapolation (Example 2); type: physicochemical; conditions: for Degradation at 29 days, 40 C / Degradation at 29 days, RT: pH 4.5; for Predicted extent of degradation at 1 yr 5° C. / Predicted extent of degradation at 1 yr RT / Predicted extent of degradation at 2 yr 5° C. / Predicted extent of degradation at 2 yr RT: pH 4.5 SBS, from RT 29-day data
Procedure: In this study, the stability of AMG 416 over a range of concentrations in succinate-buffered saline (pH 4.5) was investigated. The solution of […] AMG 416 from Example 1, supra, was diluted further with 200 μL of succinate-buffered saline (pH 4.5) to a nominal concentration of 200 mg/mL, which was serially diluted with succinate-buffered saline (pH 4.5) to 66, 20, 6.7, 2.2 and 0.67 mg/mL. The samples were kept at room temperature (i.e., about 25° C.) and aliquots were analyzed by HPLC at intervals up to 29 days. A second series of AMG 416 samples covering the concentration range 20 to 0.67 mg/mL were incubated at 40° C. and analyzed in the same manner.
The room temperature 29-day data from Table 1 was extrapolated to the stated time period by assuming linear degradation kinetics. Room temperature data was extrapolated to 5° C. A 20° C. difference was assumed, equivalent to a 4-fold lower rate of degradation. Extrapolations were carried out using a simple application of the Arrhenius equation, where at 10° C. rise in temperature provides a 2-fold increase in reaction rate, assuming the same reaction mechanism and that activation energy for each relevant reaction is around 50 kJ/mol.
Comparison of the data shown in Tables 1 and 2 allows assessment of temperature increase as a tool to predict the long-term stability of AMG 416 solutions.

For `CC(=O)N[C@H](CSSC[C@H](N)C(=O)O)C(=O)N[C@H](C)C(=O)N[C@H](CCCNC(=N)N)C(=O)N[C@H](CCCNC(=N)N)C(=O)N[C@H](CCCNC(=N)N)C(=O)N[C@H](C)C(=O)N[C@H](CCCNC(=N)N)C(N)=O` [AMG 416, N-acetyl-D-cysteinyl-D-alanyl-D-arginyl-D-arginyl-D-arginyl-D-alanyl-D-arginamide disulfide with L-cysteine], the “Degradation at 2 y” value ([1]; pH 2.5, 5° C.) was 4.4%, the “Degradation at 2 y” value ([1]; pH 2.5, 25° C.) was 30.7% and the “Degradation at 2 y” value ([1]; pH 2.5, 40° C.) was 78.8%. For the same compound, the “Degradation at 2 y” value ([1]; pH 3, 5° C.) was 1.5%, the “Degradation at 2 y” value ([1]; pH 3, 25° C.) was 14.6% and the “Degradation at 2 y” value ([1]; pH 3, 40° C.) was 60.0%. For the same compound, the “Degradation at 2 y” value ([1]; pH 3.5, 5° C.) was 0.9%, the “Degradation at 2 y” value ([1]; pH 3.5, 25° C.) was 10.0% and the “Degradation at 2 y” value ([1]; pH 3.5, 40° C.) was 53.1%. For the same compound, the stability over shelf-life ([1]; refrigerated conditions) was “adequate stability of AMG 416 over at least a two year shelf-life”, the solubility [2] was no less than 200 mg/mL and the “Degradation at 29 days, 40 C” value ([3]; 0.67 mg/mL) was 5.0%. For the same compound, the “Degradation at 29 days, RT” value ([3]; 0.67 mg/mL) was 0.1%, the “Predicted extent of degradation at 1 yr 5° C.” value ([3]; 0.67 mg/mL) was 0.3% and the “Predicted extent of degradation at 1 yr RT” value (“Predicted extent … at 1 yr RT” below) ([3]; 0.67 mg/mL) was 1.4%. The “Predicted extent of degradation at 2 yr 5° C.” value ([3]; 0.67 mg/mL) was 0.7%, the “Predicted extent of degradation at 2 yr RT” value (shortened to “Predicted extent … at 2 yr RT”) ([3]; 0.67 mg/mL) was 2.7% and the “Degradation at 29 days, 40 C” value ([3]; 2.2 mg/mL) was 5.0%. The “Degradation at 29 days, RT” value ([3]; 2.2 mg/mL) was 0.2%, the “Predicted extent of degradation at 1 yr 5° C.” value ([3]; 2.2 mg/mL) was 0.7% and the “Predicted extent … at 1 yr RT” value ([3]; 2.2 mg/mL) was 2.6%. For the same compound, the “Predicted extent of degradation at 2 yr 5° C.” value ([3]; 2.2 mg/mL) was 1.3%, the “Predicted extent … at 2 yr RT” value ([3]; 2.2 mg/mL) was 5.2% and the “Degradation at 29 days, 40 C” value ([3]; 6.7 mg/mL) was 9.4%. The “Degradation at 29 days, RT” value ([3]; 6.7 mg/mL) was 0.5%, the “Predicted extent of degradation at 1 yr 5° C.” value ([3]; 6.7 mg/mL) was 1.7% and the “Predicted extent … at 1 yr RT” value ([3]; 6.7 mg/mL) was 7.0%. The “Predicted extent of degradation at 2 yr 5° C.” value ([3]; 6.7 mg/mL) was 3.5%, the “Predicted extent … at 2 yr RT” value ([3]; 6.7 mg/mL) was 13.9% and the “Degradation at 29 days, 40 C” value ([3]; 20 mg/mL) was 26.7%. The “Degradation at 29 days, RT” value ([3]; 20 mg/mL) was 0.9%, the “Predicted extent of degradation at 1 yr 5° C.” value ([3]; 20 mg/mL) was 2.6% and the “Predicted extent … at 1 yr RT” value ([3]; 20 mg/mL) was 10.4%. For the same compound, the “Predicted extent of degradation at 2 yr 5° C.” value ([3]; 20 mg/mL) was 5.2%, the “Predicted extent … at 2 yr RT” value ([3]; 20 mg/mL) was 20.9% and the “Predicted extent of degradation at 1 yr 5° C.” value ([3]; 66 mg/mL) was 25.0%. For the same compound, the “Predicted extent … at 1 yr RT” value ([3]; 66 mg/mL) was greater than 100%, the “Predicted extent of degradation at 2 yr 5° C.” value ([3]; 66 mg/mL) was 50.1% and the “Predicted extent … at 2 yr RT” value ([3]; 66 mg/mL) was greater than 100%.
